Source: patent US11559525B2, “Therapeutic drug for dyskinesia” (Sumitomo Pharma Co., Ltd., priority 2019, dated 2023)
Structures can show the parent of a compound that is named as a salt.

Assays:
[1] = test system: PD-LID rat model (6-OHDA-lesioned rats); assay: Tandospirone metabolite 1-PP on dyskinesia-like symptoms in PD-LID rat model; format: in vivo; settings: subcutaneous 10 or 30 mg/kg
Description: The behavior was observed and evaluated using the same method in Example 2. 1-PP dihydrochloride (Tokyo Chemical Industry) was dissolved in saline and subcutaneously administered to rats. After 5 minutes, a levodopa containing solution was intraperitoneally administered to observe and evaluate the behavior. The results in the drawings are indicated in terms of mean value±standard error. The test results were statistically analyzed by comparison with the solvent administration group by Steel test by using the total AIMs score in 3 hours and total AIMs score in 100 to 180 minutes as parameters.

[2] = test system: PD-LID rat model (6-OHDA-lesioned rats); assay: Long-term dyskinesia improving effect of continuous subcutaneous infusion in PD-LID rat model; format: in vivo
Description: Individuals with a total AIMs score of less than 15 were excluded from the test as not manifesting a dyskinesia-like symptom. The behavior was observed and evaluated before the drug evaluation date. The rats were assigned to each dosing group by using the 3 hour AIMs score, Locomotive behavior score, and rat body weight as indicators, which were used for evaluation of drugs. […] The prepared solution was used after injection into an ALZET® Osmotic Pump MODEL 2ML2 (4.53 μL/hour; DURECT) for releasing a drug solution at a stable rate for 2 weeks. […] After 4 hours, a levodopa containing solution was administered to observe and evaluate the behavior (day 0 of implanting the pump). Repeat administration of once daily levodopa containing solution was continued thereafter. The behavior was also observed and evaluated on day 13 of implanting the pump. […] The results in the drawings are indicated in terms of mean value±standard error of the total AIMs scores in 3 hours. The test results were statistically analyzed using Wilcoxon rank sum test using the total AIMs score as a parameter. ** indicates p<0.01, meaning that there is a significant difference compared to the solvent administration group.

[3] = test system: PD-LID rat model (6-OHDA-lesioned rats); assay: ON-time prolongation action (ON score, ON time without dyskinesia) in PD-LID rat model; format: in vivo
Description: To make a PD-LID rat model, a mixture of levodopa methyl ester hydrochloride (6 mg/kg; Sigma-Aldrich) dissolved in saline and benserazide hydrochloride (15 mg/kg; Sigma-Aldrich) (hereinafter, also referred to as “levodopa containing solution”) was intraperitoneally administered once daily to 6-OHDA-lesioned rats. The levodopa containing solution was repeatedly administered for 3 weeks or longer to observe and evaluate the behavior. […] The sum of the scores for Limb AIMs, Axial AIMs, and Orolingual AIMs in 3 hours was used as the total dyskinesia-like symptom (AIMs) score. Individuals with a total AIMs score of less than 10 were excluded from the test as not manifesting a dyskinesia-like symptom. The behavior was observed and evaluated before the drug evaluation date. The rats were assigned to each dosing group by using the 3 hour total dyskinesia-like symptom (AIMs) score, Locomotive behavior score, and rat body weight as indicators, which were used for evaluation of drugs. For an indicator of dyskinesia behavior, the sum of the Limb AIMs, Axial AIMs, and Orolingual AIMs at each evaluation point was used as the AIMs score. For the rotational behavior (ON score), Locomotive behavior at each evaluation point was used as an indicator. The total ON score in 3 hours was used as the total ON score. For ON time without dyskinesia, the period during which the AIMs score is 0 and Locomotive behavior is 1 or greater at each evaluation point was added. Duration of action of levodopa without a dyskinesia symptom (ON time without dyskinesia) refers to the aggregate time with no dyskinesia during the antiparkinsonian action effective time, i.e., “ON-time”, and defined as the time during which the dyskinesia symptom (AIMs) score is 0 and the rotational behavior (Locomotive behavior) score is 1 or greater at each evaluation point after levodopa administration. […] After 5 minutes, a levodopa containing solution was intraperitoneally administered, and the behavior was observed and evaluated. The results in the drawings are indicated in terms of mean value±standard error. The test results were statistically analyzed by comparison with the solvent administration group using the Steel test with the total ON score in 3 hours or ON time without dyskinesia as an indicator. ** indicates p<0.01, meaning that there is a significant difference. For evaluation of a tape agent, the abdominal regions of the rats were shaved prior to the evaluation date. […] After 4 hours from application, a levodopa containing solution was intraperitoneally administered to observe and evaluate the behavior. The results in the drawings are indicated in terms of mean value±standard error. Individuals with 50% or more of the tape agent coming off during the test were excluded from analysis. The test results were statistically analyzed by comparison with the placebo tape administration group using Wilcoxon rank sum test with the total ON score in 3 hours or ON time without dyskinesia as an indicator. * indicates p<0.05 and ** indicates […], meaning that there is a significant difference compared to the solvent oral administration group or the placebo tape administration group.

[4] = test system: PD-LID rat model (6-OHDA-lesioned rats); assay: Oral administration of tandospirone citrate on dyskinesia-like symptoms in PD-LID rat model; format: in vivo; settings: oral 10, 30, or 100 mg/kg as citrate concentration, levodopa 5 minutes later
Description: The behavior was observed and evaluated using the same method as Example 2. […] After 5 minutes, a levodopa containing solution was intraperitoneally administered, and the behavior was observed and evaluated. The results in the drawings are indicated in terms of mean value±standard error. The test results were statistically analyzed by comparison with the solvent administration group by Steel test using the total AIMs score in 3 hours and total AIMs score in 100 to 180 minutes as parameters. * indicates p<0.05, meaning that there is a significant difference. The dosage was described as a numerical value converted in terms of tandospirone free form.

[5] = test system: PD-LID rat model (6-OHDA-lesioned rats); assay: as above; format: in vivo; settings: oral 30 or 100 mg/kg
6-OHDA-lesioned rats = assay: Prevention/delay of manifestation of dyskinesia by continuous subcutaneous infusion in 6-OHDA-lesioned rats; format: in vivo, rat
Description: The prepared solution was used after injection into an ALZET® Osmotic Pump MODEL 2ML2 (4.53 μL/hour; DURECT).
6-OHDA-lesioned rats were assigned to each administration group using the number of apomorphine hydrochloride hemihydrate induced rotations and body weight as indicators. […] The osmotic pump implanted subcutaneously was retrieved after the observation and evaluation of behavior on day 15. The behavior was also observed and evaluated on the following day (day 16 of repeated administration of levodopa).
The test results were statistically analyzed by comparison with the solvent administration group using Steel test with the total AIMs score on day 16 of repeated levodopa administration as the parameter. * indicates p<0.05 and ** indicates p<0.01, meaning that there is a significant difference compared to the solvent administration group.

[6] = Plasma tandospirone concentration measured after observation and evaluation of behavior in PD-LID rats; format: in vivo, rat; settings: continuous subcutaneous infusion 60 mg/mL citrate
Description: 50 μL of rat plasma sample was fractionated into a polypropylene microtube. 50 μL of methanol (50 μL of standard solution for calibration curve sample) and 200 μL of internal standard solution (Bezafibrate methanol solution: 200 nmol/L, 200 μL of methanol for blank sample) are added and stirred for about 10 seconds with a mixer. This is centrifuged (4° C., 4500 rpm, 10 min), and then the supernatant is subjected to vacuum filtration using a filter (FastRemover MF 0.2 μm). 70 μL of aqueous 10 mmol/L ammonium acetate solution is added to 70 μL of the resulting filtrate and stirred for about 10 seconds with a mixer to prepare a measurement sample.
When evaluating a tape agent, the hair on the abdominal region of rats was shaved before the evaluation date. The tape agent of formulation 2 was applied to the abdominal regions of rats on the evaluation date at 60 cm^2/kg (37 mg/kg). After 4 hours from application, a levodopa containing solution was intraperitoneally administered to observe and evaluate the behavior. Individuals with 50% or more of the tape agent coming off during the test were excluded from analysis.
After 4 hours from application, a levodopa containing solution was intraperitoneally administered to observe and evaluate the behavior. Individuals with 50% or more of the tape agent coming off during the test were excluded from analysis.
After 4 hours, a levodopa containing solution was administered to observe and evaluate the behavior.
After 4 hours, a levodopa containing solution was administered to observe and evaluate the behavior (day 0 of implanting the pump). Repeat administration of once daily levodopa containing solution was continued thereafter. The behavior was also observed and evaluated on day 13 of implanting the pump.

[7] = oral 30 mg/kg and 100 mg/kg as citrate

mean value of plasma tandospirone concentrations (converted in terms of free form) ([6]; day 0 of implanting the pump) [ng/mL]	mean value of plasma tandospirone concentrations (converted in terms of free form) ([6]; day 13 of implanting the pump) [ng/mL]	Compound	clear dyskinesia-like symptom (mean AIMs score of 2 or greater) at 120 to 140 minutes after levodopa [1]	total AIMs score in 100 to 180 minutes vs solvent [1]	total AIMs score vs solvent ([1]; levodopa 5 minutes later)	dyskinesia-like symptoms (total AIMs score in 180 minutes) vs solvent ([2]; continuous subcutaneous infusion 60 mg/mL (mean 0.78 mg/kg/hour as citrate), day 0 of implanting the pump)	dyskinesia-like symptoms (total AIMs score in 180 minutes) vs solvent ([2]; continuous subcutaneous infusion 60 mg/mL citrate, day 13 of implanting the pump)	ON time without dyskinesia for 180 minutes vs solvent [3, 7]	total ON score after 180 minutes of levodopa administration vs solvent [3, 7]	ON-time without dyskinesia for 180 minutes (Locomotive behavior ≥1, and AIMs score=0) ([3]; oral 100 mg/kg as citrate)	total ON score ([3]; oral 100 mg/kg as citrate)	total AIMs score vs solvent [4]	clear dyskinesia-like symptom (mean AIMs score of 2 or greater) at 120 to 140 minutes after levodopa administration [5]	total AIMs score in 100 to 180 minutes vs solvent [5]	increase in total AIMs score associated with repeated administration of levodopa vs solvent (6-OHDA-lesioned rats; continuous subcutaneous infusion 30 mg/mL (mean 0.41 mg/kg/hour) or 60 mg/mL (mean 0.83 mg/kg/hour), days 3-15)	total AIMs score on the day after completion of administration (day 16) vs solvent (6-OHDA-lesioned rats; continuous subcutaneous infusion 30 or 60 mg/mL, pump retrieved day 15)
		c1cnc(N2CCNCC2)nc1 [1-PP dihydrochloride, 1-(2-Pyrimidyl) piperazine]	clear dyskinesia-like symptom (mean AIMs score of 2 or greater) was observed	increasing trend in the total AIMs score, albeit not significant	significant change in the total AIMs score was not found											
281	143	tandospirone citrate				Significant improvement	significant improvement	increase in ON time without dyskinesia	increase in the total ON score	significant prolongation	increase in the total ON score	significant change in the total AIMs score was not observed	clear dyskinesia-like symptom (mean AIMs score of 2 or greater) was observed	significant increase	suppressed the increase in total AIMs score	significantly lower
